{
  "source": "patent US8735609B2",
  "about": "“Bryostatin analogues, synthetic methods and uses” (The Board of Trustees of the Leland Stanford Junior …, priority 2007, dated 2014)",
  "key": {"PKCδ-C1B": {"target": "T1, PKCδ-C1B (Mus musculus, UniProt P28867)", "T1 construct": "made in house", "T1 sequence (P28867 231-281 limits assumed)": "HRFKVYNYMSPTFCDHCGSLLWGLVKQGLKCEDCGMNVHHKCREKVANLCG", "test": "PKCδ-C1B assay", "type": "binding", "protocol": "Phosphatidyl serine vesicles are prepared by the addition of phosphatidyl serine (10 mg/mL in chloroform, 0.4 mL) to a glass test tube followed by removal of the chloroform under a stream of nitrogen (5 min). […] The resulting solution is stored over ice. […] Stock solutions of compounds are diluted with absolute ethanol in glass in serial fashion. […] The tubes are incubated at 37° C. for 90 min. and then put on ice for 5 min. Each tube is then filtered separately through a pre-soaked filter disc. […] The filter is subsequently rinsed with cold 20 mM TRIS buffer (5 mL) dropwise. […] The filters are immediately counted in a scintillation counter (Beckman LS 6000SC). Counts per minute are averaged among three trials at each concentration."}, "[1]": {"target": "PKC purified from the rat brain", "test": "PKC binding assay", "details": "for Ki: competitive inhibition of [3H]-PDBu binding, read-out: PKC Binding constant", "protocol": "Filters (Whatman GF-B, 21 mm dia.) are soaked for 1 hour in a solution containing deionized water (97 mL), and 10% polyethyleneamine (3 mL). An assay buffer solution is prepared by the combining of TRIS (1M, pH 7.4, 1 mL), KCl (1M, 2 μL), CaCl2 (0.1M, 30 μL), bovine serum albumin (40 mg), and diluting to 20 mL with deionized water and stored on ice. Phosphatidyl serine vesicles are prepared by the addition of phosphatidyl serine (10 mg/mL in chloroform, 0.4 mL) to a glass test tube followed by removal of the chloroform under a stream of nitrogen (5 min). To this viscous liquid is added a portion of the prepared assay buffer (4 mL) and the resulting mixture is then transferred to a plastic tube. This tube is then sonicated (Branson Sonifier 250, power=6, 40% duty cycle) four times for 30 sec. with a 30 sec. rest in-between sonications. The resulting solution is stored over ice. PKC is prepared by the addition of cooled assay buffer (10 mL) to PKC (25 mL) purified from the rat brain by the method of Mochly-Rosen et al. (J. Biol. Chem. 1987, 262, 2291) and then stored on ice. Stock solutions of compounds are diluted with absolute ethanol in glass in serial fashion.\nEach plastic assay incubation tube is made to contain prepared phosphatidyl serine vesicles (60 μL), prepared PKC solution (200 μL) and analog ([…] plus EtOH (20-0 μL) for a total volume of 20 μL). Lastly, tritiated phorbol dibutryate ([3H]-PDBu) (30 nM, 20 μL) is added to each tube. The assay is carried out using 7-10 analog concentrations, each in triplicate. Non-specific binding is measured in 1-3 tubes by the substitution of phorbol myristate acetate (PMA) (1 mM, 5 μL) and EtOH (15 μL) for the analog/EtOH combination. The tubes are incubated at 37° C. for 90 min. and then put on ice for 5 min. Each tube is then filtered separately through a pre-soaked filter disc. The filter is subsequently rinsed with cold 20 mM TRIS buffer (5 mL) dropwise. The filters are then put in separate scintillation vials and Universol® scintillation fluid is added (3 mL). The filters are immediately counted in a scintillation counter (Beckman LS 6000SC). Counts per minute are averaged among three trials at each concentration. The data is then plotted using a least square fit algorithm with the Macintosh version of Kaleidagraph® (Abelbeck Software) and an IC50 (defined as the concentration of analog required to displace half of the specific PDBu binding to PKC) is calculated. The IC50 then allows determination of the Ki for the analog from the equation: Ki=IC50/(1+[PDBu])/Kd of PDBu)."}, "[2]": {"target": "PKC purified from rat brain", "test": "Protein kinase C (isozyme mix) assay", "type": "binding", "details": "37° C., 90 min, read-out: Kd of [H^3]-PDBu", "protocol": "In one approach, anticancer activity of compounds of the invention can be assessed using the protein kinase C assay detailed in Example 5. In this assay, Ki values are determined for analogues based on competition with radiolabeled phorbol 12,13-dibutyrate for binding to a mixture of PKC isoenzymes. PKC enzymes are implicated in a variety of cellular responses which may be involved in the activity of the bryostatins.\nThe following procedure was used, based on a modification of a previous procedure described by Tanaka et al. (1986). Filters (Whatman GF-B, 21 mm diam.) are soaked for 1 h in a solution containing deionized water (97 mL), and 10% polyethyleneamine (3 mL). A filtering buffer solution containing TRIS (1M, pH 7.4, 10 mL) and water (490 mL) is prepared and cooled on ice. […] Non-specific binding is measured in 1-3 tubes by the substitution of phorbol myristate acetate (PMA) (1 mM, 5 μL) and EtOH (15 μL) for the analogue/EtOH combination. […] The filters are immediately counted in a scintillation counter (Beckman LS 6000SC). […] The data is then plotted using a least squares fit algorithm with the Macintosh version of Kaleidagraph© (Abelbeck Software) and an IC50 (defined as the concentration of analogue required to displace half of the specific PDBU binding to PKC) is calculated. […]"}, "[3]": {"target": "T2, PKCβI (PKC-GFP fusion protein) (Homo sapiens, UniProt P05771)", "T2 construct": "expressed in transfected cells; host or cells: Rat basophilic leukemia 2H3 (RBL) cells", "T2 sequence (P05771 whole entry, the tested form may be a part)": "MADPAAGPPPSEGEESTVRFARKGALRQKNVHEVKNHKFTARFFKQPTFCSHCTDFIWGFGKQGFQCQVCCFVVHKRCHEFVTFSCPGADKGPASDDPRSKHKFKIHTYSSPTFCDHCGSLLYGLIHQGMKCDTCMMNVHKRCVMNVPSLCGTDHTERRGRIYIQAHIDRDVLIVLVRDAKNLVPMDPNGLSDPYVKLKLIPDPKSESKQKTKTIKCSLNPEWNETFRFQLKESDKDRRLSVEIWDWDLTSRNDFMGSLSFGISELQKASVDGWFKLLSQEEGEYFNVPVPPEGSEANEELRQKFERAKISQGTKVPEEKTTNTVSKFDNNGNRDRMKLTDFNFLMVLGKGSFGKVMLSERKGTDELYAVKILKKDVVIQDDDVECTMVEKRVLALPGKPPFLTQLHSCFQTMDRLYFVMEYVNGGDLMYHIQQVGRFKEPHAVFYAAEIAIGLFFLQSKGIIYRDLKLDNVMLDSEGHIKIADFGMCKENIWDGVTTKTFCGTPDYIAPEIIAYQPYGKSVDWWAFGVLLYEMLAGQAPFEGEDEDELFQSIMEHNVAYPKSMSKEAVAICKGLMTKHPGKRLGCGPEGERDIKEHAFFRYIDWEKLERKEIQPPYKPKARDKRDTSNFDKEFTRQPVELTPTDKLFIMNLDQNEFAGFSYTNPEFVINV", "test": "PKC translocation assay, PKCβI", "type": "cell-based, Rat", "protocol": "(§1) Functional activity of analogs were addressed in a PKC translocation assay. […] This translocation can be observed and measured in real time with confocal microscopy using the fusion protein PKC-GFP (green fluorescent protein) as a reporter. Translocation assays were performed on the novel PKC isozymes δ and ε and on the conventional isozyme PKCβ1.\n(§2) Rat basophilic leukemia 2H3 (RBL) cells were cultured in Dulbecco's Modified Eagle Medium (DMEM) (Invitrogen Life Technologies, Gibco) containing 20% fetal calf serum with 50 units/ml penicillin, […] and 4 mM glutamine (Gibco). Cells were maintained at 37° C. in an atmosphere of 10% CO2. Two hours prior to transfection, cells were plated onto sterile glass coverslips. […]\n(§3) Fluorescence images were obtained using the 488 nm excitation line of a laser scanning confocal microscope (Pascal, Zeiss) and emission was collected through a 505-550 nm band pass filter. […]\n(§4) Images were exported as 12 bit files and analyzed using Metamorph data analysis software (Universal Imaging). To monitor the translocation of PKCδ-GFP, a small region of interest was selected in the cytosol of each cell and fluorescence intensity values graphed against time following background subtraction and normalization. […]"}, "PKCδ-GFP fusion protein": {"target": "T3, PKCδ-GFP fusion protein (Homo sapiens, UniProt Q05655)", "T3 construct": "The DNA encoding C-terminal GFP-tagged full-length PKCδ was electroporated into the cells; expressed in transfected cells; host or cells: Rat basophilic leukemia 2H3 (RBL) cells", "T3 sequence (Q05655 whole entry, the tested form may be a part)": "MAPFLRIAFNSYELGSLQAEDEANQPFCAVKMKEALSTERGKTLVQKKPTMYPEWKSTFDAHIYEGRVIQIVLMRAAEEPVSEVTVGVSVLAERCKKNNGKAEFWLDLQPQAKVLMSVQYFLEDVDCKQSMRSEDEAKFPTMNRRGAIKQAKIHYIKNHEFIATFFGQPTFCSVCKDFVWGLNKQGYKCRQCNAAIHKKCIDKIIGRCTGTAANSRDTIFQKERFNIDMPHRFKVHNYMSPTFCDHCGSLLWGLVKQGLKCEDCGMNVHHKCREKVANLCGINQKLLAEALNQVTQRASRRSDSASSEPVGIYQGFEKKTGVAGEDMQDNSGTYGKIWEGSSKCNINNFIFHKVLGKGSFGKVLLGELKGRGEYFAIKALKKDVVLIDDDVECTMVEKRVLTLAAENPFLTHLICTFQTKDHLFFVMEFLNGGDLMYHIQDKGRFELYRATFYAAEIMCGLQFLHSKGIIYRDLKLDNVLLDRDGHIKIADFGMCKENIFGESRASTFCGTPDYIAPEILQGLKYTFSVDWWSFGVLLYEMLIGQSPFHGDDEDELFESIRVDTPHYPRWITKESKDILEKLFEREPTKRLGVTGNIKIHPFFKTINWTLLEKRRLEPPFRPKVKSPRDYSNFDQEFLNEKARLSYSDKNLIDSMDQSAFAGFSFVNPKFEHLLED", "test": "PKC translocation assay, PKCδ", "type": "cell-based, Rat", "details": "RBL cells, 200 nM, confocal microscopy", "protocol": "as §1, §2, §3, §4"}, "[4]": {"target": "T4, PKCε (PKC-GFP fusion protein) (Homo sapiens, UniProt Q02156)", "T4 construct": "expressed in transfected cells; host or cells: Rat basophilic leukemia 2H3 (RBL) cells", "T4 sequence (Q02156 whole entry, the tested form may be a part)": "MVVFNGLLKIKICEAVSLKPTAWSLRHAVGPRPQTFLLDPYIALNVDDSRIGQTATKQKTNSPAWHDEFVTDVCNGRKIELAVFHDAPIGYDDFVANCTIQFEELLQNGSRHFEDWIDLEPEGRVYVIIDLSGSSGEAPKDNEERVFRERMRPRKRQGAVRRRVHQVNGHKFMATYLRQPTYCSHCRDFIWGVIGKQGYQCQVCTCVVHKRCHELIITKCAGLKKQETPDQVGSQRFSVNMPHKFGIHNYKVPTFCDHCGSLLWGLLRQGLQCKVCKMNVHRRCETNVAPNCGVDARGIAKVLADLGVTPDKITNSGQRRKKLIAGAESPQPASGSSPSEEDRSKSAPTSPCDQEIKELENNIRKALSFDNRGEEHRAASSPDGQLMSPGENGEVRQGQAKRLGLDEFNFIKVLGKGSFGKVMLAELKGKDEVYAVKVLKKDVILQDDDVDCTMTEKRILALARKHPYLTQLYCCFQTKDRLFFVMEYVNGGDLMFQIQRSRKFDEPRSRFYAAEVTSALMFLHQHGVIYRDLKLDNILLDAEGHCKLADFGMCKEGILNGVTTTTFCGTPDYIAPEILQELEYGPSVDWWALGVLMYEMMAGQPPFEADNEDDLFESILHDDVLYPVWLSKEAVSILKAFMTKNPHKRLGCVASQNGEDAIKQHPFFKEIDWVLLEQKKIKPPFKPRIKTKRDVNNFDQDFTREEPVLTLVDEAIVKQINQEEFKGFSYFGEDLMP", "test": "PKC translocation assay, PKCε", "type": "cell-based, Rat", "details": "RBL cells, 200 nM, confocal microscopy", "protocol": "as §1, §2, §3, §4"}, "P388 cell line": {"system": "P388 cell line", "test": "P388 murine lymphocytic leukemia cell assay", "type": "cell-based", "details": "Mus musculus, P388, 120 h, read-out: P388 Assay ED50", "protocol": "Cells from a P388 cell line (CellGate, Inc., Sunnyvale, Calif.) are grown in RPMI 1640 cell medium containing fetal calf serum (10%), L-glutamine, penicillin, streptomycin and are split twice weekly. All compounds are first diluted with DMSO. Later serial dilutions are done with a phosphate buffer solution (HYQ DPBS modified phosphate buffered saline). All dilutions are done in glass vials and the final DMSO concentration is always below 0.5% by volume. Final two-fold dilutions are done in a 96 well plate using cell media so that each well contains 50 μL. All compounds are assayed in quadruplicate over 12 concentrations. Cell concentration is measured using a hemacytometer and the final cell concentration is adjusted to 1×10^4 cells/mL with cell medium. The resulting solution of cells (50 μL) is then added to each well and the plates are incubated for 5 days in a 37° C., 5% CO2, humidified incubator (Sanyo CO2 incubator). MTT solution (3-[4,5-dimethylthiazol-2-yl]-2,5-diphenyltetrazolium bromide, 10 μL) is then added to each well and the plates are re-incubated under identical conditions for 2 h. To each well is then added acidified isopropanol (150 μL of i-PrOH solution containing 0.05 N HCl) and mixed thoroughly. The plates are then scanned at 595 nm and the absorbances are read (Wallac Victor 1420 Multilabel Counter). The resulting data is then analyzed to determine an ED50 value using the Prism software package (GraphPad)."}},
  "note": "Like-named read-outs stand apart in the source and are kept apart here.",
  "data": [
    {"smiles": "CCCC(=O)O[C@@H]1[C@@H](C)[C@@]2(O)[C@@H](C=C(CO)C[C@]3(O)C(=O)C(C)=C[C@@H]23)[C@@H]2C(C)(C)[C@]12OC(=O)CCC", "note": "[Phorbol dibutyrate, phorbol 12,13-dibutyrate, reference compound]", "values": [
      {"measurement": "Kd", "setting": "PKCδ-C1B; Kd value", "value": 1.7, "unit": "nM"}
    ]},
    {"smiles": "C=CCC1C[C@H]2C[C@H]3CCC[C@@H](C[C@@H](O)CC(=O)O[C@@H](CO)C[C@@H]4C/C(=C\\C(=O)OC)[C@H](OC(=O)CCCCCCC)[C@@](O)(O4)C(C)(C)/C=C/[C@@H](O1)O2)O3", "note": "(stereo partly shown) [Formula 22A]", "values": [
      {"measurement": "Ki", "setting": "[1]", "value": 0.67, "unit": "nM"}
    ]},
    {"smiles": "CCCC(=O)O[C@@H]1[C@@H](C)[C@@]2(O)[C@@H](C=C(CO)C[C@]3(O)C(=O)C(C)=C[C@@H]23)[C@@H]2C(C)(C)[C@]12OC(=O)CCC", "note": "[[3H]—PDBu, tritiated phorbol 12,13-dibutyrate, reference compound]", "values": [
      {"measurement": "Kd", "setting": "[1]; read-out: PKC Binding constant (Kd of [3H]-PDBu)", "value": 1.17, "unit": "nM"},
      {"measurement": "Kd", "setting": "[2]", "value": 1.55, "unit": "nM"}
    ]},
    {"smiles": "CCCCCCCC(=O)OC1C(=CC(=O)OC)CC2CC(CO)OC(=O)CC(O)CC3CCCC(CC4COC(C=CC(C)(C)C1(O)O2)O4)O3", "note": "(stereo not shown) [Formula 18B.1]", "values": [
      {"measurement": "ability to translocate PKCβI relative to bryostatin 1", "setting": "[3]", "value": "significantly reduced ability to translocate"},
      {"measurement": "translocation of PKCβI from the cytosol to cellular membranes", "setting": "[3]; RBL cells, 200 nM, confocal microscopy", "value": "reduced"},
      {"measurement": "translocation of PKCδ from the cytosol to cellular membranes", "setting": "PKCδ-GFP fusion protein", "value": "rapid and complete"},
      {"measurement": "Ki", "setting": "[1]", "value": 5.4, "unit": "nM"},
      {"measurement": "translocation of PKCε from the cytosol to cellular membranes", "setting": "[4]", "value": "rapid and complete"}
    ]},
    {"smiles": "COC(=O)/C=C1\\C[C@H]2C[C@H]([C@@H](C)O)OC(=O)C[C@H](O)C[C@@H]3CCC[C@H](C[C@@H]4CCO[C@H](/C=C/C(C)(C)[C@](O)(O2)[C@H]1OC(C)=O)O4)O3", "note": "[Formula 702.2]", "values": [
      {"measurement": "EC50", "setting": "P388 cell line; 5 days incubation, MTT", "value": 181, "unit": "nM"}
    ]},
    {"smiles": "CCCCCCC(=O)O[C@H]1/C(=C/C(=O)OC)C[C@H]2C[C@H]([C@@H](C)O)OC(=O)C[C@H](O)C[C@@H]3CCC[C@H](C[C@@H]4CCO[C@H](/C=C/C(C)(C)[C@]1(O)O2)O4)O3", "note": "[Formula 702.3]", "values": [
      {"measurement": "Ki", "setting": "PKCδ-C1B", "value": 35, "unit": "nM"},
      {"measurement": "EC50", "setting": "P388 cell line", "value": 38, "unit": "nM"}
    ]},
    {"smiles": "C=CCC1C[C@H]2CCOCC[C@@H](O)CC(=O)O[C@@H](CO)C[C@@H]3C/C(=C\\C(=O)OC)[C@H](OC(=O)CCCCCCC)[C@@](O)(O3)C(C)(C)/C=C/[C@@H](O1)O2", "note": "(stereo partly shown) [Formula 20A]", "values": [
      {"measurement": "Ki", "setting": "[1]", "value": 2.6, "unit": "nM"}
    ]}
  ]
}
